According to the CheMixHub ionic liquid set:
± gives the uncertainty stated by the source.

Experiment: xn = mol fraction of the nth substance listed

CCCCCC[n+]1ccccc1.O=[N+]([O-])[O-] + O
298.15 K, 101 kPa
Settings	viscosity [mPa·s]
x1 = 0.0002072	0.9698 ± 0.0081
x1 = 0.0003855	1.002 ± 0.0083
x1 = 0.0005691	1.012 ± 0.0083
x1 = 0.0007311	1.033 ± 0.0085
x1 = 0.0009416	1.045 ± 0.0085
x1 = 0.001112	1.058 ± 0.0086
x1 = 0.001262	1.069 ± 0.0087
x1 = 0.00145	1.101 ± 0.0089
x1 = 0.001634	1.107 ± 0.0089
x1 = 0.001826	1.122 ± 0.0091
x1 = 0.003609	1.219 ± 0.0097
x1 = 0.005402	1.312 ± 0.01
x1 = 0.007153	1.39 ± 0.011
x1 = 0.008806	1.453 ± 0.012
x1 = 0.01076	1.515 ± 0.012
x1 = 0.01248	1.581 ± 0.013
x1 = 0.01427	1.646 ± 0.013
x1 = 0.01599	1.702 ± 0.014
x1 = 0.01772	1.758 ± 0.015

CCCCCCCCCCCCOS(=O)(=O)[O-].[Na+] + CCCO + O
298 K, 100 kPa, frequency 0.001 MHz
Settings	electrical conductivity [S/m]
x2 = 0.01543, x1 = 3.435e-05	0.0146 ± 0.0006
x2 = 0.02615, x3 = 0.9738	0.033 ± 0.0006
x2 = 0.04737, x3 = 0.9525	0.0508 ± 0.00065
x2 = 0.07172, x3 = 0.9277	0.102 ± 0.0011
x2 = 0.07173, x3 = 0.9279	0.0751 ± 0.00084

298.15 K, 101 kPa
Settings	electrical conductivity [S/m]
x2 = 0, x1 = 3.24e-06	0.001447 ± 1e-06
x2 = 0, x1 = 8.11e-06	0.003433 ± 1e-06
x2 = 0, x1 = 1.64e-05	0.006697 ± 1e-06
x2 = 0, x1 = 2.505e-05	0.01006 ± 1e-05
x2 = 0, x1 = 2.991e-05	0.0119 ± 1e-05
x2 = 0, x1 = 3.478e-05	0.01378 ± 1e-05
x2 = 0, x1 = 3.964e-05	0.01564 ± 1e-05
x2 = 0, x1 = 5.063e-05	0.01999 ± 1e-05
x2 = 0, x1 = 6.198e-05	0.02434 ± 1e-05
x2 = 0, x1 = 7.406e-05	0.02896 ± 1e-05
x2 = 0, x1 = 8.09e-05	0.03151 ± 1e-05
x2 = 0, x1 = 8.667e-05	0.03369 ± 1e-05
x2 = 0, x1 = 9.135e-05	0.03548 ± 1e-05
x2 = 0, x1 = 9.694e-05	0.03753 ± 1e-05
x2 = 0, x1 = 0.0001016	0.03931 ± 1e-05
x2 = 0, x1 = 0.000107	0.04131 ± 1e-05
x2 = 0, x1 = 0.0001175	0.0452 ± 1e-05
x2 = 0, x1 = 0.0001223	0.047 ± 1e-05
x2 = 0, x1 = 0.0001268	0.04874 ± 1e-05
x2 = 0, x1 = 0.0001315	0.0504 ± 1e-05
x2 = 0, x1 = 0.0001364	0.05202 ± 1e-05
x2 = 0, x1 = 0.0001411	0.05353 ± 1e-05
x2 = 0, x1 = 0.0001454	0.05471 ± 1e-05
x2 = 0, x1 = 0.0001541	0.05656 ± 1e-05
x2 = 0, x1 = 0.0001586	0.05737 ± 1e-05
x2 = 0, x1 = 0.0001631	0.05814 ± 1e-05
x2 = 0, x1 = 0.0001692	0.05912 ± 1e-05
x2 = 0, x1 = 0.0001735	0.05977 ± 1e-05
x2 = 0, x1 = 0.000178	0.06043 ± 1e-05
x2 = 0, x1 = 0.0001825	0.06112 ± 1e-05
x2 = 0, x1 = 0.0001892	0.06206 ± 1e-05
x2 = 0, x1 = 0.0001935	0.06269 ± 1e-05
x2 = 0, x1 = 0.0002002	0.06378 ± 1e-05
x2 = 0, x1 = 0.0002048	0.06444 ± 1e-05
x2 = 0, x1 = 0.0002097	0.06508 ± 1e-05
x2 = 0, x1 = 0.000214	0.06575 ± 1e-05
x2 = 0.007626, x1 = 0.0004015	0.09227 ± 1e-05
x2 = 0.007627, x1 = 0.0002602	0.06737 ± 1e-05
x2 = 0.007627, x1 = 0.0002829	0.07143 ± 1e-05
x2 = 0.007627, x1 = 0.0003124	0.07668 ± 1e-05
x2 = 0.007627, x1 = 0.0003456	0.08254 ± 1e-05
x2 = 0.007628, x1 = 0.0001267	0.04228 ± 1e-05
x2 = 0.007628, x1 = 0.000135	0.04399 ± 1e-05
x2 = 0.007628, x1 = 0.0001447	0.04592 ± 1e-05
x2 = 0.007628, x1 = 0.0001683	0.05047 ± 1e-05
x2 = 0.007628, x1 = 0.0001845	0.05346 ± 1e-05
x2 = 0.007628, x1 = 0.0002013	0.05663 ± 1e-05
x2 = 0.007628, x1 = 0.0002199	0.06003 ± 1e-05
x2 = 0.007628, x1 = 0.0002404	0.06381 ± 1e-05
x2 = 0.007629, x1 = 1.192e-05	0.004556 ± 1e-06
x2 = 0.007629, x1 = 1.321e-05	0.005113 ± 1e-06
x2 = 0.007629, x1 = 1.651e-05	0.00628 ± 1e-06
x2 = 0.007629, x1 = 1.962e-05	0.007449 ± 1e-06
x2 = 0.007629, x1 = 2.274e-05	0.00856 ± 1e-06
x2 = 0.007629, x1 = 2.623e-05	0.009738 ± 1e-06
x2 = 0.007629, x1 = 2.934e-05	0.01087 ± 1e-05
x2 = 0.007629, x1 = 3.228e-05	0.01189 ± 1e-05
x2 = 0.007629, x1 = 3.595e-05	0.01317 ± 1e-05
x2 = 0.007629, x1 = 3.925e-05	0.01435 ± 1e-05
x2 = 0.007629, x1 = 4.255e-05	0.01551 ± 1e-05
x2 = 0.007629, x1 = 4.823e-05	0.0178 ± 1e-05
x2 = 0.007629, x1 = 5.135e-05	0.0189 ± 1e-05
x2 = 0.007629, x1 = 5.465e-05	0.02006 ± 1e-05
x2 = 0.007629, x1 = 5.795e-05	0.02124 ± 1e-05
x2 = 0.007629, x1 = 6.474e-05	0.02366 ± 1e-05
x2 = 0.007629, x1 = 6.804e-05	0.02483 ± 1e-05
x2 = 0.007629, x1 = 7.152e-05	0.02603 ± 1e-05
x2 = 0.007629, x1 = 7.464e-05	0.02715 ± 1e-05
x2 = 0.007629, x1 = 7.776e-05	0.02824 ± 1e-05
x2 = 0.007629, x1 = 8.088e-05	0.02934 ± 1e-05
x2 = 0.007629, x1 = 8.418e-05	0.03045 ± 1e-05
x2 = 0.007629, x1 = 8.95e-05	0.03235 ± 1e-05
x2 = 0.007629, x1 = 9.426e-05	0.03397 ± 1e-05
x2 = 0.007629, x1 = 9.995e-05	0.03577 ± 1e-05
x2 = 0.007629, x1 = 0.0001049	0.03716 ± 1e-05
x2 = 0.007629, x1 = 0.0001146	0.03955 ± 1e-05
x2 = 0.01553, x1 = 4.687e-05	0.01553 ± 1e-05
x2 = 0.01553, x1 = 5.322e-05	0.01769 ± 1e-05
x2 = 0.01553, x1 = 7.282e-05	0.0238 ± 1e-05
x2 = 0.01553, x1 = 7.842e-05	0.02558 ± 1e-05
x2 = 0.01553, x1 = 8.757e-05	0.02822 ± 1e-05
x2 = 0.01553, x1 = 9.765e-05	0.03081 ± 1e-05
x2 = 0.01553, x1 = 0.0001083	0.03351 ± 1e-05
x2 = 0.01553, x1 = 0.0001201	0.03619 ± 1e-05
x2 = 0.01553, x1 = 0.0001298	0.03847 ± 1e-05
x2 = 0.01553, x1 = 0.0001533	0.04391 ± 1e-05
x2 = 0.01553, x1 = 0.0001677	0.04711 ± 1e-05
x2 = 0.01553, x1 = 0.0001815	0.05015 ± 1e-05
x2 = 0.01553, x1 = 0.0001979	0.05361 ± 1e-05
x2 = 0.01553, x1 = 0.0002319	0.06058 ± 1e-05
x2 = 0.01553, x1 = 0.0002511	0.06442 ± 1e-05
x2 = 0.01553, x1 = 0.0002703	0.06822 ± 1e-05
x2 = 0.01553, x1 = 0.0002877	0.0716 ± 1e-05
x2 = 0.01553, x1 = 0.0003082	0.07551 ± 1e-05
x2 = 0.01554, x1 = 5.98e-06	0.002351 ± 1e-06
x2 = 0.01554, x1 = 1.176e-05	0.004274 ± 1e-06
x2 = 0.01554, x1 = 1.811e-05	0.006392 ± 1e-06
x2 = 0.01554, x1 = 2.428e-05	0.008288 ± 1e-06
x2 = 0.01554, x1 = 2.894e-05	0.009768 ± 1e-06
x2 = 0.01554, x1 = 3.492e-05	0.01173 ± 1e-05
